The source of these data is patent US8293272B2, “Solid pharmaceutical preparation containing levothyroxine and/or liothyronine salts” (Globopharm Pharmazeutische Produktions-und …, priority 2003, dated 2012).

Each structure is given as a SMILES string.

The nature of this data set: accelerated storage stability at 40° C. and 75% relative humidity (active ingredient content).

On to `N[C@@H](Cc1cc(I)c(Oc2cc(I)c(O)c(I)c2)c(I)c1)C(=O)[O-].[Na+]` [Levothyroxine-Na], for which the “activity of the original quantity” value (160 μg levothyroxine-Na preparation, water factor 0.3, 40° C. and 75% relative humidity, 3 months) was determined as 95.2 % by weight. The residual activity (160 μg levothyroxine-Na preparation, water factors 0.4 to 0.5, 40° C. and 75% relative humidity, 3 months) is 90.7 % by weight.

In the case of `N[C@@H](Cc1cc(I)c(Oc2ccc(O)c(I)c2)c(I)c1)C(=O)[O-].[Na+]` [liothyronine-Na], the “employed quantity still active” value (combination preparation containing 25 μg liothyronine-Na, water factor 0.25, one month) is reported as 97.7 % by weight. Also, the content remaining (combination preparation containing 25 μg liothyronine-Na, water factor 0.4 to 0.5, 1 month) was 87.2%.
